In US9458104B2 (priority 2012, dated 2016):

Tests used:
RORγ = biological target: T1, RORγ (UniProt P51449); assay type: cell-based; details: 293T cells, 16 h; for pIC50 (FF): firefly (FF) luciferase; for pIC50 (REN): renilla normalised (RENnorm) luciferase
T1 construct: hRORg-LBD|aa259-518|NP_005051.2; hRORgt|aa1-497|NP_001001523 (RORg, t isoform, 497aa); mRORg-LBD|aa264-516|NP_035411
T1 sequence (P51449 1-518): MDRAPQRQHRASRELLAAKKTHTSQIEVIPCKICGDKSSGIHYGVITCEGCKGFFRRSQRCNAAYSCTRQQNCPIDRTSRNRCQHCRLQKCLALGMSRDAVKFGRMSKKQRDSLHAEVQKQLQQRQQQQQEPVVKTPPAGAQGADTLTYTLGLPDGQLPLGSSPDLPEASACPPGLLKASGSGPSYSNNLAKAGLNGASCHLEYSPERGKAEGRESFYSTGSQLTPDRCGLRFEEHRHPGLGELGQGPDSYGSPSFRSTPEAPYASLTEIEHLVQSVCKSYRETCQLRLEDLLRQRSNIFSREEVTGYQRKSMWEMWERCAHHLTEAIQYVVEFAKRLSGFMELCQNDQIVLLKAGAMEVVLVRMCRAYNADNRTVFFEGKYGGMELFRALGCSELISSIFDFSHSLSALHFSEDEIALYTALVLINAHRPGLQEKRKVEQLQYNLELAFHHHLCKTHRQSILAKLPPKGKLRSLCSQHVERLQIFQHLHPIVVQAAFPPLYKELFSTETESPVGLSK
Experimental: Determination of a ligand mediated Gal4 promoter driven transactivation to quantify ligand binding to RORγ was performed as follows: DNA encoding three different RORγ. protein fragments was cloned into vector pCMV-BD (Stratagene). Expression was under control of a CMV promoter and as fusion to the DNA-binding domain of the yeast protein GAL4. Other vectors used were pFR-Luc (Stratagene) as regulated reporter plasmid. pFR-Luc contains a synthetic promoter with five tandem repeats of the yeast GAL4 binding sites that control expression of the Photinus pyralis (American firefly) luciferase gene. In order to improve experimental accuracy the plasmid pRL-CMV was cotransfected. pRL-CMV contains the constitutive CMV promoter, controlling the expression of the Renilla reniformis luciferase.
All Gal4 reporter gene assays were done in 293T cells (DSMZ (German Collection of Microorganisms and Cell Cultures), Braunschweig, Germany, ACC635) grown in Minimum Essential Medium (MEM) with Phenol Red. The medium is supplemented with 10% fetal bovine serum, 0.1 mM nonessential amino acids, 1 mM sodium pyruvate, 1% Glutamax and 100 units Penicilin/[…] per mL at 37° C. in 5% CO2.
For the assay, […] were plated per well in 96 well plates in 100 μL per well, incubated over night at 37° C. in 5% CO2. The following day, medium was discarded and the cells were transiently transfected using 20 μL per well of a OptiMEM—PEI-based transfection-reagent (Sigma-Aldrich, 408727) including the three plasmids described above. About 4 h after addition of the transfection solution, fresh Minimal Essential Medium (MEM, same composition as used for plating cells, but without serum) was added. Then compound stocks, prediluted in MEM (same composition as used for plating cells) were added (final vehicle concentration not exceeding 0.1%).
All experiments were done at least in triplicates.
It is understood that the data illustrated below may have reasonable variation depending on the specific conditions and procedures used by the person conducting the test.

[1] = biological target: T2, RORγ ligand binding domain (LBD) (Homo sapiens, UniProt P51449); experiment: TR-FRET Activity Assay (ligand sensing assay, RORγ-LBD / coactivator peptide interaction); assay type: biochemical
T2 construct: made in house; host or cells: E. coli BL-21 (BL3), vector pDEST15
T2 sequence (P51449 269-508 limits assumed): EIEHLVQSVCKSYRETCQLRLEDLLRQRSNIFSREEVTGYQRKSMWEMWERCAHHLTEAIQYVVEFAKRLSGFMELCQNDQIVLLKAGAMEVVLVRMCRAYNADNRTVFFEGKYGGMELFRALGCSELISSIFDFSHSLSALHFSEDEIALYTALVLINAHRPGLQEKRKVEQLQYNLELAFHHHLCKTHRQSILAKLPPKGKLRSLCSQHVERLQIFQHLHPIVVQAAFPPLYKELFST
Source text: This method measures the ability of putative ligands to modulate the interaction between the purified bacterial expressed RORγ ligand binding domain (LBD) and synthetic N-terminally biotinylated peptides which are derived from nuclear receptor coactivator proteins such as but not limited to SRC1 (NcoA1), SRC2 (NcoA2, TIF2), SRC3 (NcoA3), PGC1α, PGC1β, CBP, GRIP1, TRAP220, RIP140.
The ligand-binding domain (LBD) of RORγ was expressed as fusion protein with GST in […] cells using the vector pDEST15. Cells were lysed by lysozyme-treatment and sonication, and the fusion proteins purified over glutathione sepharose (Pharmacia) according to the manufacturers instructions. For screening of compounds for their influence on the RORγ-peptide interaction, the LANCE technology (Perkin Elmer) was applied. This method relies on the binding dependent energy transfer from a donor to an acceptor fluorophor attached to the binding partner of interest. For ease of handling and reduction of background from compound fluorescence LANCE technology makes use of generic fluorophore labels and time resolved detection assays were done in a final volume of 25 μL in a 384 well plate, in a Tris-based buffer system (20 mM Tris-HCl pH6.8; 60 mM KCl, 1 mM DTT; 5 mM MgCl2; 35 ng/μL BSA), containing 20-60 ng/well recombinantly expressed RORγ-LBD fused to GST, 200-600 nM N-terminally biotinylated peptide, 200 ng/well Streptavidin-xIAPC conjugate (Prozyme) and 6-10 ng/well Eu W1024-antiGST (Perkin Elmer). DMSO content of the samples was kept at 1%.
After generation of the Tris-based buffer system, the potentially RORγ modulating ligands were diluted. […] The LANCE signal was detected by a Perkin Elmer EnVision™ Multilabel Counter. The results were visualized by plotting the ratio between the emitted light at 665 nm and 615 nm. […] Ligands that promote the complex formation induce a concentration-dependent increase in time-resolved fluorescent signal.
To assess the antagonistic potential of the compounds, IC50 values were determined using a Ligand Sensing Assay based on Time-resolved Fluorescence Energy Transfer (TR-FRET) as described above. The normalised TR-FRET assay values, using the following equation: 1000*665 nm measurement value/615 nm measurement value, were transferred to the program GraphPad Prism to generate graphs and dose response curves using the following equation: […]
This is identical to the “four parameter logistic equation”. The IC50 values are calculated using this equation. […] Is is understood that the data illustrated below may have reasonable variation depending on the specific conditions and procedures used by the person conducting the test.

`Cc1c(C(=O)NC2CCOCC2)cc(-c2ccc(S(=O)(=O)NC(C)(C)C)c(C(F)(F)F)c2)n1CC1CCOC1` (stereo not drawn) [302/4] was tested, and the “pIC50 (FF)” value (RORγ) was under 4.7, the “pIC50 (REN)” value (RORγ) was under 4.7 and the IC50 [1] was 3980 nM.
For `Cc1c(C(=O)NC2CCOCC2)cc(-c2ccc(S(=O)(=O)NC(C)(C)C)c(C(F)(F)F)c2)n1CC1CCCOC1` (stereo not drawn) [302/5], the “pIC50 (FF)” value (RORγ) was 6.2, the “pIC50 (REN)” value (RORγ) was 6.3 and the IC50 [1] was 794 nM.
`Cc1c(C(=O)NC2CCOCC2)cc(-c2ccc(S(=O)(=O)NC(C)(C)C)c(C(F)(F)F)c2)n1C1CCCCC1` [302/6] was tested, and the “pIC50 (FF)” value (RORγ) was 6.5, the “pIC50 (REN)” value (RORγ) was 6.7 and the IC50 [1] was 1000 nM.
In the case of `CC(C)(C)c1cc(-c2nc(C(N)=O)nn2CC2CCCCC2)cc(C(C)(C)C)c1` [308/1], the “pIC50 (FF)” value (RORγ) is reported as 6.0, the “pIC50 (REN)” value (RORγ) is reported as 6.0 and the IC50 [1] is reported as 2510 nM.
In the case of `CC(C)(C)c1cc(-c2nc(C(=O)NC3CC3)nn2CC2CCCCC2)cc(C(C)(C)C)c1O` [308/2], the “pIC50 (FF)” value (RORγ) is reported as 6.2, the “pIC50 (REN)” value (RORγ) is reported as 6.3 and the IC50 [1] is reported as 631 nM.
In the case of `CC(C)(C)c1cc(-c2nc(C(=O)NC3COC3)nn2CC2CCCCC2)cc(C(C)(C)C)c1O` [308/3], the “pIC50 (FF)” value (RORγ) is reported as 6.3, the “pIC50 (REN)” value (RORγ) is reported as 6.4 and the IC50 [1] is reported as 794 nM.
`CC(C)(C)c1cc(-c2nc(C(=O)NC3CCOCC3)nn2CC2CCCCC2)cc(C(C)(C)C)c1O` [308/4] was tested, and the “pIC50 (FF)” value (RORγ) was 6.3, the “pIC50 (REN)” value (RORγ) was 6.4 and the IC50 [1] was 1000 nM.
For `CC(C)(O)CNC(=O)c1nc(-c2cc(C(C)(C)C)c(O)c(C(C)(C)C)c2)n(CC2CCCCC2)n1` [308/6], the “pIC50 (FF)” value (RORγ) was 6.5, the “pIC50 (REN)” value (RORγ) was 6.5 and the IC50 [1] was 1000 nM.
With `C[C@@H](O)CNC(=O)c1nc(-c2cc(C(C)(C)C)c(O)c(C(C)(C)C)c2)n(CC2CCCCC2)n1` [308/7] the “pIC50 (FF)” value (RORγ) was 5.7, the “pIC50 (REN)” value (RORγ) was 5.9 and the IC50 [1] was 2510 nM.
`C[C@H](O)CNC(=O)c1nc(-c2cc(C(C)(C)C)c(O)c(C(C)(C)C)c2)n(CC2CCCCC2)n1` [308/8] was tested, and the “pIC50 (FF)” value (RORγ) was 6.2, the “pIC50 (REN)” value (RORγ) was 6.3 and the IC50 [1] was 1580 nM.
With `CC(C)(C)NS(=O)(=O)c1ccc(-c2nc(C(=O)NC3CCOCC3)nn2CC2CCCCC2)cc1C(C)(C)C` [308/9] the “pIC50 (FF)” value (RORγ) was 5.6, the “pIC50 (REN)” value (RORγ) was 5.6 and the IC50 [1] was 7940 nM.
For `CC(C)(C)NS(=O)(=O)c1ccc(-c2nc(C(=O)N[C@H]3C[C@H](C(=O)O)C3)nn2CC2CCCCC2)cc1C(C)(C)C` [308/10], the “pIC50 (FF)” value (RORγ) was under 4.7, the “pIC50 (REN)” value (RORγ) was under 4.7 and the IC50 [1] was 6310 nM.
In the case of `Cc1cc(-n2nc(C(N)=O)cc2CC2CCCCC2)cc(C(C)(C)C)c1` [312/2], the “pIC50 (FF)” value (RORγ) is reported as under 4.7, the “pIC50 (REN)” value (RORγ) is reported as under 4.7 and the IC50 [1] is reported as 7940 nM.
With `Cc1c(C(=O)NCC(C)(C)O)cn(-c2cc(C(C)(C)C)cc(C3(C)CC3)c2)c1CC1CCCCC1` [Example 1/1] the “pIC50 (FF)” value (RORγ) was 7.4, the “pIC50 (REN)” value (RORγ) was 7.5 and the IC50 [1] was 200 nM.
`Cc1c(C(=O)NC2CCOCC2)cn(-c2cc(Br)cc(C(C)(C)C)c2)c1C=C1CCCCC1` [Example 2, 1-(3-Bromo-5-(tert-butyl)phenyl)-5-(cyclohexylidenemethyl)-4-methyl-N-(tetrahydro-2H-pyran-4-yl)-1H-pyrrole-3-carboxamide] was tested, and the “pIC50 (FF)” value (RORγ) was 6.4, the “pIC50 (REN)” value (RORγ) was 6.5 and the IC50 [1] was 1260 nM.
With `Cc1c(C(=O)NCCC(C)(C)C(=O)O)cn(-c2ccc(S(=O)(=O)NC(C)(C)C)c(C(F)(F)F)c2)c1CC1CCCCC1` [Example 4, 4-(1-(4-(N-(tert-Butyl)sulfamoyl)-3-(trifluoromethyl)phenyl)-5-(cyclohexylmethyl)-4-methyl-1H-pyrrole-3-carboxamido)-2,2-dimethylbutanoic acid] the “pIC50 (FF)” value (RORγ) was 7.7, the “pIC50 (REN)” value (RORγ) was 7.7 and the IC50 [1] was 501 nM.
`Cc1c(C(=O)N[C@H]2C[C@H](C(=O)O)C2)cn(-c2ccc(S(=O)(=O)NC(C)(C)C)c(C(C)(C)C)c2)c1CC1CCCCC1` [Example 4/1] was tested, and the “pIC50 (FF)” value (RORγ) was 7.2, the “pIC50 (REN)” value (RORγ) was 7.3 and the IC50 [1] was 1260 nM.
For `Cc1c(C(=O)N[C@H]2C[C@H](C(=O)O)C2)cn(-c2cc(C(C)(C)C)cc(C3(C)CC3)c2)c1C(=O)C1CCCCC1` [Example 6, (trans)-3-(1-(3-(tert-Butyl)-5-(1-methylcyclopropyl)phenyl)-5-(cyclohexanecarbonyl)-4-methyl-1H-pyrrole-3-carboxamido)cyclobutanecarboxylic acid], the “pIC50 (FF)” value (RORγ) was 7.9, the “pIC50 (REN)” value (RORγ) was 8.0 and the IC50 [1] was 501 nM.
In the case of `Cn1c(C(=O)N[C@H]2C[C@H](C(=O)O)C2)cc(-c2cc(C(C)(C)C)cc(C3(C)CC3)c2)c1CC1CCCCC1` [Example 8, (trans)-3-(4-(3-(tert-BUTYL)-5-(1-methylcyclopropyl)phenyl)-5-(cyclohexylmethyl)-1-methyl-1H-pyrrole-2-carboxamido)cyclobutanecarboxylic acid], the “pIC50 (FF)” value (RORγ) is reported as 7.6, the “pIC50 (REN)” value (RORγ) is reported as 7.7 and the IC50 [1] is reported as 1000 nM.
For `Cn1c(C(=O)NCCC(C)(C)C(=O)O)cc(-c2ccc(S(=O)(=O)NC(C)(C)C)c(C(C)(C)C)c2)c1CC1CCCCC1` [Example 8/1], the “pIC50 (FF)” value (RORγ) was 7.0, the “pIC50 (REN)” value (RORγ) was 7.0 and the IC50 [1] was 2000 nM.
`Cc1c(C(=O)NCCC(C)(C)C(=O)O)c(Cl)n(-c2ccc(S(=O)(=O)NC(C)(C)C)c(C(F)(F)F)c2)c1CC1CCCCC1` [Example 9, 4-(1-(4-(N-(tert-Butyl)sulfamoyl)-3-(trifluoromethyl)phenyl)-2-chloro-5-(cyclohexylmethyl)-4-methyl-1H-pyrrole-3-carboxamido)-2,2-dimethylbutanoic acid] was tested, and the “pIC50 (FF)” value (RORγ) was 8.4, the “pIC50 (REN)” value (RORγ) was 8.4 and the IC50 [1] was 794 nM.
